Reference: PMC9706563, “Development of Macrocyclic PRMT5–Adaptor Protein Interaction Inhibitors” (Journal of Medicinal Chemistry, 2022)
Entries after “also recorded” stand apart in the source; their conditions may differ. Where two headings read alike, the source gives them in different places. One block for each compound: values may come before it. Square brackets hold non-standard residues; d marks the D form. Peptide text beside a SMILES is read from it. * marks the point of attachment. FITC = O=C1OC2(c3ccc(O)cc3Oc3cc(O)ccc32)c2ccc(NC(=S)*)cc21; Phe(2-I) = N[C@@H](Cc1ccccc1I)C(=O)O

Tests used:
[1] = biological target: T1, PRMT5-MEP50 complex (Homo sapiens, UniProt O14744); assay: Pull-down with peptides immobilized on DBCO beads, MCF7 cell lysate; format: binding; conditions: MCF7 cell lysate, DBCO beads, western blot
T1 construct: endogenous in cells; host or cells: MCF7
Description: DBCO agarose beads (300 μL; Jena Bioscience, Germany) were washed three times with PBS (600 μL, pH 7.4). To the beads suspended in PBS (600 μL) was added a 10 mM solution of azide-labeled peptide in DMSO or pure DMSO. The obtained suspensions were incubated overnight at 4 °C. The beads were washed with PBS three times for 10 min. MCF7 cells were harvested and lysed using Triton X100 lysis buffer (NaCl 150 mM, HEPES 25 mM, TCEP 1 mM, 1% Triton x100, 1% NP40 alternative, protease, and phosphatase inhibitor, pH 7.4). Empty beads, beads bound to an active peptide (55), or beads bound to a scrambled peptide (56) were added to the lysate (6 mg/mL) and rotated at 4 °C overnight. Beads attached to the active peptides were also incubated in the lysate containing a nonimmobilized/free active macrocycle (53 at 100 μM). Beads were collected by centrifugation (800g for 1 min) and washed three times for 10 min with PBS (500 μL). The beads were suspended in SDS-PAGE protein loading buffer (20 uL; […], 8% v/v glycerol, 2% SDS, […] (DTE), 0.02% bromophenol blue, pH 6.8), heated with shaking for 10 min at 95 °C, and centrifuged at 350 rpm. The obtained solutions were analyzed by western blotting using 10% acrylamide gels, and PVDF membranes and the relevant proteins were fluorescently detected using antibodies against PRMT5 and MEP50 and the corresponding secondary IRDye antibodies.

[2] = biological target: T2, PRMT5-MEP50 (Homo sapiens, UniProt O14744); assay: Competitive binding FP assay, FITC-labeled 50 as tracer
T2 construct: The compounds were tested by means of FP with the full-length PRMT5-MEP50 complex; made in house
Description: (§1) The competitive binding assay was performed in a buffer of 50 mM HEPES, 250 mM NaCl, 1 mM TCEP, and 0.01% (v/v) Tween 20, 8.0 pH, in black, 384-well plates with a total volume of 10 μL per well. The FITC-labeled peptides or the Alexa 488-labeled pICln protein, at a final concentration of 1 nM, were mixed with PRMT5-MEP50 (at a final concentration of 194 nM when used with peptide 50, 600 nM with compound S1 [see Table S3] and 21, and 27 nM in the case of Alexa 488-labeled pICln), and the appropriate nonlabeled peptide or protein was titrated as two-fold dilution series. The plates were incubated at room temperature for up to 1 h 45 min and analyzed on a plate reader using 485 nm excitation and 535 nm emission wavelength. The experiment was performed in triplicate.

[3] = biological target: T3, PRMT5-MEP50 + pICln (Homo sapiens, UniProt O14744); assay: Competitive FP assay with Alexa 488-labeled full-length human pICln; format: binding
T3 construct: made in house
Description: To a solution of the full-length pICln protein (ca. 1 mg/mL) in 0.2 M bicarbonate buffer with 1 mM TCEP at pH 8.3 was added 10 mM Alexa […] in DMSO (8 equiv). The solution was kept on ice under dark conditions overnight. The protein was washed 8–10 times with a buffer intended for the fluorescence polarization assay (50 mM HEPES, 250 mM NaCl, 1 mM TCEP, 8.0 pH) using an Amicon Ultra-0.5 mL spin filter (Merck, Germany). Protein concentration was determined using the NanoDrop spectrophotometer.
The competitive binding assay was performed in a buffer of 50 mM HEPES, 250 mM NaCl, 1 mM TCEP, and 0.01% (v/v) Tween 20, 8.0 pH, in black, 384-well plates with a total volume of 10 μL per well. […] The plates were incubated at room temperature for up to 1 h 45 min and analyzed on a plate reader using 485 nm excitation and 535 nm emission wavelength. The experiment was performed in triplicate.

[4] = biological target: T4, TIM-MEP50 complex (Homo sapiens, UniProt O14744); assay: Thermal shift assay (TSA); format: binding; conditions: for TSA Average Tm (°C): supplementary CSV
T4 construct: made in house
Description: Thermal Shift Assays of peptides on the TIM-MEP50 complex were carried out in a 96-well PCR plate (LightCycler 480 Multiwell Plates 96, white, 04729692001). The purified protein complex was appropriately diluted in a buffer containing 50 mM HEPES (pH = 8.0), 250 mM NaCl, and 1 mM TCEP. All assay experiments used 5.36 μg of protein per well and […] 5000X Sypro Orange (Invitrogen) up to a total volume of 25 μL, with a resultant protein concentration of 3 μM and 5X SYPRO. Peptides were supplied at 10 mM concentration in DMSO. The PCR plates were sealed with an optical seal (LightCycler 480 Sealing Foil, 04729757001), shaken, and centrifuged after protein and compounds were added. Thermal scanning (25–95 °C at 1 °C/min) was performed using a real-time PCR setup (LightCycler 480 – Roche), and fluorescence intensity was measured after every temperature increment step. Analysis of the raw data was performed using internally developed software. Statistical validation of Tm shift relevance was performed using the Student’s t test (n = 6).

[5] = biological target: T2, PRMT5-MEP50; assay: MTase-Glo methyltransferase activity assay; format: biochemical; conditions: H4 histone tail peptide substrate
Description: The assay was performed in 1× reaction buffer of 20 mM Tris, 50 mM NaCl, 1 mM EDTA, 3 mM MgCl2, 0.1 mg/mL BSA, and 1 mM DTT at pH = 8.0 in white, 384-well plates. […] The plate was incubated at 20–21 °C for 1 h. MTase-Glo detection solution (5 μL) was added, and the plate was incubated at 20–21 °C for 1 h, followed by a luminescence measurement at a plate reader. The experiment was performed in triplicate.

[6] = Stability assay in cell lysate; format: in vitro ADME
Description: To the whole cell lysate prepared from U2OS cells with the freeze–thaw method was added the appropriate peptide, resulting in a mixture of 0.5 mg/mL protein and 600 μM peptide in PBS, and incubated at 37 °C. The samples were taken at 0, 15, 30 min, 1, 2, 4 h, 1, 3, and 7-days time points and mixed with an equal volume of ice-cold ethylparaben solution in MeOH (0.1 mg/mL), used as the internal standard. The samples were kept on ice for 15 min and centrifuged at 16,873 × g at 4 °C for 5 min. The obtained supernatant was then analyzed by HPLC, the peptide and the internal standard peaks at 210 nm were integrated, and the ratio of the peptide peak surface area to the internal standard was calculated. The experiment was conducted in duplicate.

[7] = biological target: T2, PRMT5-MEP50; assay: Competitive binding FP assay, compound 21 as tracer
Description: as §1

[8] = biological target: T2, PRMT5-MEP50; assay: Direct binding fluorescence polarization (FP) assay of FITC-labeled peptides; conditions: supplementary CSV, read-out: PRMT5-MEP50 Kd
Description: The assay was performed in a buffer of 50 mM 4-(2-hydroxyethyl)-1-piperazineethanesulfonic acid (HEPES), 250 mM NaCl, 1 mM tris(2-carboxyethyl)phosphine (TCEP), and 0.01% (v/v) Tween 20, pH 8.0, in black, 384-well plates with a total volume of 10 μL per well. […] The plates were incubated at room temperature for 1 to 2 h and analyzed on a plate reader using 485 nm excitation and 535 nm emission wavelength. The assay was performed in triplicate.

T4 sequence (O14744 13-292 limits assumed): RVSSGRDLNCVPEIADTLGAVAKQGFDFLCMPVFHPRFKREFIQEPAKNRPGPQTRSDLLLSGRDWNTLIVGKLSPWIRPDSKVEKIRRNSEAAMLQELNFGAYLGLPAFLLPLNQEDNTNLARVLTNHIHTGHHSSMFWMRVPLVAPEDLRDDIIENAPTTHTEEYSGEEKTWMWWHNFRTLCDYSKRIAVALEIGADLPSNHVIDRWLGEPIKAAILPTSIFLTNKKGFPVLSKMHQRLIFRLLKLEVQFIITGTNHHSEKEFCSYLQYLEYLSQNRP
T4 sequence (Q9BQA1 whole entry partner): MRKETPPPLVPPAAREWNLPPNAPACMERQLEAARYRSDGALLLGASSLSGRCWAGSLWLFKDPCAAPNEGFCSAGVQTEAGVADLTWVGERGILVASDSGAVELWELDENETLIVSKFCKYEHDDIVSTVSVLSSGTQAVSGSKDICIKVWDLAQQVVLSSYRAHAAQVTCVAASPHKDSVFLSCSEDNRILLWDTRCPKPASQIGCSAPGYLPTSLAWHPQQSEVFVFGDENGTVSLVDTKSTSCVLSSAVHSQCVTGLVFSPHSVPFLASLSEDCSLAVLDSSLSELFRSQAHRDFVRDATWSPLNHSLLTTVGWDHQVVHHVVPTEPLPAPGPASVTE
T2 sequence (O14744 whole entry): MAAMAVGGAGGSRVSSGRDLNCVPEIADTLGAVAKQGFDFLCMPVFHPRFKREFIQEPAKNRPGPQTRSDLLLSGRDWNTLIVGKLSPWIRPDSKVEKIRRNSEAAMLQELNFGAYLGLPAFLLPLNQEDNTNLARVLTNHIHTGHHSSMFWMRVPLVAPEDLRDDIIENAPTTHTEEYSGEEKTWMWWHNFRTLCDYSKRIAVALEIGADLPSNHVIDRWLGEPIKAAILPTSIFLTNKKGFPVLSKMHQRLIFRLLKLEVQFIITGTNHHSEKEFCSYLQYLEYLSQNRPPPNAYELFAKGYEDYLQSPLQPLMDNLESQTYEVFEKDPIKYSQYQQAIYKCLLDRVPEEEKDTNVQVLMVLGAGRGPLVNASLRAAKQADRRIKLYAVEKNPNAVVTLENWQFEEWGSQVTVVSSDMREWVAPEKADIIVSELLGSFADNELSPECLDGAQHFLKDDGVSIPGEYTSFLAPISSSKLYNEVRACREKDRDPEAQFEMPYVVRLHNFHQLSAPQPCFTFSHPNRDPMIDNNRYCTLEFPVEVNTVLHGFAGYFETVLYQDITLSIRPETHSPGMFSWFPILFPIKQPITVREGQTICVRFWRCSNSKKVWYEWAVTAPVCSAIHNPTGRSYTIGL
T2 sequence (Q9BQA1 whole entry partner): as the sequence (Q9BQA1 whole entry partner) above
T3 sequence (O14744 whole entry): as the sequence (O14744 whole entry) above
T3 sequence (Q9BQA1 whole entry partner): as the sequence (Q9BQA1 whole entry partner) above
T1 sequence (O14744 whole entry): as the sequence (O14744 whole entry) above
T1 sequence (Q9BQA1 whole entry partner): as the sequence (Q9BQA1 whole entry partner) above

Compound: CC(=O)N1CCC[C@H]1C(=O)N[C@H](C(=O)N[C@@H]1CCCCC[C@@H](C(=O)N[C@@H](Cc2ccc([N+](=O)[O-])cc2)C(=O)N[C@@H](CC(C(=O)O)C(=O)O)C(=O)N[C@@H](CCC(N)=O)C(=O)N[C@@H](CCCCNC(=O)COCCOCCOCCN=[N+]=[N-])C(N)=O)NC(=O)[C@H](CC(=O)O)NC(=O)[C@H](C)NC1=O)C(C)C [Compound 56]
- enrichment of the PRMT5-MEP50 complex by immobilized peptide [1]: did not show significant interaction

Compound: CC(=O)N1CCC[C@H]1C(=O)N[C@H](C(=O)N[C@@H]1CCCCC[C@@H](C(=O)N[C@@H](Cc2ccc([N+](=O)[O-])cc2)C(=O)N[C@@H](CC(C(=O)O)C(=O)O)C(=O)N[C@@H](CCC(N)=O)C(N)=O)NC(=O)[C@H](CC(=O)O)NC(=O)[C@H](C)NC1=O)C(C)C [Compound 54]
- Ki ([2]; from competitive FP with tracer 50): n.b.
- PRMT5-MEP50 Ki (µM) ([2]; from competitive FP with tracer 50, supplementary CSV): nb
- IC50 ([3]; competition with Alexa 488-labeled pICln, 27 nM PRMT5-MEP50): did not compete
- PRMT5-MEP50 + pICln IC50 (µM) ([3]; competition with labeled pICln, supplementary CSV): nb
- increase of the average melting temperature ([4]; TSA, PRMT5 TIM barrel-MEP50 complex, n = 6): No stabilization
- TSA Average Tm (°C) [4]: 49.32 ± 0.18 °C

Compound: CC(=O)N[C@H](C(=O)N1CCC[C@H]1C(=O)N[C@@H]1CCCCC[C@@H](C(=O)N[C@@H](CC(=O)O)C(=O)N[C@@H](C)C(=O)N[C@@H](CC(C(=O)O)C(=O)O)C(=O)N[C@@H](CCCCNC(=O)COCCOCCOCCN=[N+]=[N-])C(N)=O)NC(=O)[C@H](Cc2ccc([N+](=O)[O-])cc2)NC(=O)[C@H](CCC(N)=O)NC1=O)C(C)C [Compound 55]
- enrichment of the PRMT5-MEP50 complex by immobilized peptide [1]: successfully enriched the PRMT5-MEP50 complex

Compound: Ac-VPGQFDDAD-NH2 [Compound 31]
- half-life ([6]; U2OS cell lysate, 37 °C, 600 μM peptide): 4.4 h
- half-life ([6]; cells or culture medium, supplementary CSV, read-out: Half-llife in Lysate (converted)): 4.32 h

Compound: CC(=O)N[C@H](C(=O)N1CCC[C@H]1C(=O)NC1CCCCC[C@@H](C(=O)N[C@@H](CC(=O)O)C(=O)N[C@@H](C)C(=O)N[C@@H](CC(=O)O)C(N)=O)NC(=O)[C@H](Cc2ccccc2)NC(=O)[C@H](CCC(N)=O)NC1=O)C(C)C (stereo in doubt) [Compound 30]
- IC50 ([7]; competitive FP, compound 21 as tracer, 600 nM PRMT5-MEP50): 1170 ± 290 nM
- Ki ([7]; from competitive FP with tracer 21): 313 ± 121 nM
- IC50 ([2]; competitive FP, compound 50 as tracer, 194 nM PRMT5-MEP50): 1060 ± 240 nM
- IC50 ([3]; competition with labeled pICln, supplementary CSV, read-out: PRMT5-MEP50 + pICln IC50): 3200 ± 2400 nM
- half-life ([6]; U2OS cell lysate, 37 °C, 600 μM peptide, read-out: half-life (converted)): 299 h
- increase of half-life over the linear 31 ([6]; cell lysate, 37 °C): 70 fold
- Half-llife in Lysate ([6]; supplementary CSV): 12.5 days
- effect on direct methylation activity of PRMT5 [5]: has no effect; also recorded: does not interfere with the direct methylation activity of the enzyme
- TSA Average Tm (°C) [4]: 51.32 ± 0.00 °C

Now from value to compound:

- effect on direct methylation activity of PRMT5 [5]: is able to inhibit
Compound: O=C(NC[C@H](O)CN1CCc2ccccc2C1)c1cc(NC2COC2)ncn1 [EPZ015666, reference compound]

- Kd [8]: > 1000 nM
Compound: CC(=O)N[C@H](C(=O)N1CCC[C@H]1C(=O)NCC(=O)N[C@@H](CCC(N)=O)C(=O)N[C@@H](Cc1ccccc1I)C(=O)N[C@@H](CC(=O)O)C(=O)N[C@@H](CC(=O)O)C(=O)N[C@@H](C)C(=O)N[C@@H](CC(=O)O)C(=O)N[C@@H](CCCCNC(=S)Nc1ccc2c(c1)C(=O)OC21c2ccc(O)cc2Oc2cc(O)ccc21)C(N)=O)C(C)C [Compound S14] (Ac-VPGQ[Phe(2-I)]DDADK(FITC)-NH2)

- Kd [8]: > 1000 nM
Compound: CC(=O)N[C@@H](Cc1ccccc1)C(=O)N1CCC[C@H]1C(=O)NCC(=O)N[C@@H](CCC(N)=O)C(=O)N[C@@H](Cc1ccccc1)C(=O)N[C@@H](CC(=O)O)C(=O)N[C@@H](CC(=O)O)C(=O)N[C@@H](C)C(=O)N[C@@H](CC(=O)O)C(=O)N[C@@H](CCCCNC(=S)Nc1ccc2c(c1)C(=O)OC21c2ccc(O)cc2Oc2cc(O)ccc21)C(N)=O [Compound S3] (Ac-FPGQFDDADK(FITC)-NH2)
